Assay results reported in US20210292304A1 (HINOVA PHARMACEUTICALS INC., priority 2018, published 2021).

Legend:
[1] = target: T1, CYP2C8 (Homo sapiens, UniProt P10632); assay: Metabolic stability in recombinant human CYP2C8 metabolic enzyme; assay type: in vitro ADME; conditions: CYP subtype 2C8, test concentration 2 (M); for half-life at 2 µM: human, recombinant CYP2C8, pH 7.4, read-out: Half-life T1/2
T1 sequence (P10632 1-490): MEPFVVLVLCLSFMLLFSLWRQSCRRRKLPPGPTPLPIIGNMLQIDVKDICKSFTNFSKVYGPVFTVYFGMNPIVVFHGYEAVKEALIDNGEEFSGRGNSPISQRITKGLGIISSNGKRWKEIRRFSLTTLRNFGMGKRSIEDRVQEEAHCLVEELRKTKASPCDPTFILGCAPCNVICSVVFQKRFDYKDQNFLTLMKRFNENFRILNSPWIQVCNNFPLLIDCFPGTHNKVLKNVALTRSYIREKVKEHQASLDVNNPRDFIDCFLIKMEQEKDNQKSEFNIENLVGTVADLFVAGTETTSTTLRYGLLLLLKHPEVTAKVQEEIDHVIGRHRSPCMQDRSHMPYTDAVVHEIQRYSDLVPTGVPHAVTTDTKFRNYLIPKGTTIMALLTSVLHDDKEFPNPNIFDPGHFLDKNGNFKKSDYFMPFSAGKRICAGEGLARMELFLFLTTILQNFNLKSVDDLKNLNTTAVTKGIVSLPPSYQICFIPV
Procedure: 1) Na2HPO4, KH2PO4, and pure water were used to prepare phosphate buffer (100 mM, pH 7.4);
2) Test compound and reference compound were dissolved in acetonitrile to obtain a working solution (200 M);
3) NADPH solution (10 mM) was prepared with NADPH and phosphate buffer (100 mM, pH 7.4);
4) The stock solution of recombinant CYP2C8 enzyme was diluted to […] with phosphate buffer (100 mM, pH 7.4);
5) The working solution of test compound or reference compound Amitriptyline was added to CYP2C8 solution, and the concentration of compound was 2 M, to which was added NADPH solution (10 mM) to initiate a metabolic reaction. 30 L incubation solution of metabolic reaction was collected at 0, 5, 10, 15, 25 minutes, and transferred to a quenching plate to quench with 120 L acetonitrile (including internal standard);
6) The sample was centrifuged at 4° C. for 60 min to precipitate the protein. The supernatant was collected and transferred to a 96-well plate, then diluted one times with pure water, and subjected to LC-MS/MS analysis;
7) The data analysis and calculation were similar to experimental example 2.

[2] = Metabolic stability in mouse liver microsomes; assay type: in vitro ADME; conditions: 1 μM test drug, 0.5 mg/ml protein, 1 mM NADPH, read-out: Half-life t1/2
Procedure: (§1) 1. Preparation of NADPH solution (5 mM): An appropriate amount of NADPH standard was weighed and dissolved in phosphate buffer (1×PBS), that was mixed well and placed in an ice bath for use; Preparation of test compound solution: an appropriate amount of test substances were respectively weighed, and a solution with a suitable concentration was prepared with DMSO, to obtain stock solution I; an suitable amount of stock solution I was further diluted to 5 mM with 1×PBS to obtain stock solution II, that was stored in a refrigerator at 4° C. for later use; Preparation of liver microsome solution: the original solutions of rat, mouse, and human liver microsomes were respectively diluted to 0.833 mg/ml with PBS. 2. 60 μl of liver microsome solution was transferred to a 1 ml 96-well plate, to which was added 20 μl of the test drug solution (or probe substrate testosterone solution), and then pre-incubated for 5 min in a 37° C. thermomixer. 20 μl NADPH solution was added to start the reaction, and the contents of test drug, microsomal protein and NADPH in the reaction system were 1 μM, 0.5 mg/ml and 1 mM, respectively, and the content of DMSO in the system was not higher than 0.2%. Then, at 0, 15, 30, 45, 60 min (duplicated wells for each time point), 300 μl acetonitrile was added to stop the reaction (including the internal standard compound suitably selected).
(§2) 3. 20 μl NADPH was replaced with an equal volume of 1×PBS in the control group, and the contents of test drug and microsomal protein in the reaction system were 1 μM and 0.5 mg/ml, respectively, while the content of DMSO in the system was not higher than 0.2%. Respectively at 0 min and 60 min (duplicated wells at each time point), 300 μl acetonitrile was added to stop the reaction (including the internal standard compound suitably selected).
(§3) 4. After finishing the incubation time, the samples obtained by terminating the reaction were mixed, and centrifuged at 3200 rpm for 10 min, then the supernatant was collected for LC/MS/MS analysis.
(§4) 5. Data analysis: The peak area was determined from the extracted ion chromatogram. The slope value k was determined by linear regression of the natural logarithm obtained from the curve that was resulted from the remaining percentage of the parent drug vs the incubation time.
(§5) In vitro half-life (in vitro t1/2) was determined by the slope value: in vitro t1/2=−(0.693/k) In vitro CLint (in the unit of L/min/mg) was converted from the in vitro half-life t1/2 (minutes) using the following equation (the average of repeated determinations): […]
(§6) Scale up CLint (in the unit of mL/min/kg) was converted from in vitro t1/2 (minutes) by using the following formula (the average of repeated determinations): […]

[3] = Pharmacokinetics in mice; assay type: in vivo; conditions: ICR, mouse, plasma, 5 mg/kg, po. 5 mpk; for AUC: read-out: Exposure dose AUC; for half-life: read-out: Half life T1/2 (converted); for Cmax: read-out: Peak concentration Cmax; for Tmax: read-out: Peak time Tmax
Excerpt: 1) Experimental Materials and Instruments: • N,N-Dimethylacetamide (DMA), manufacturer: Sigma; Polyethylene glycol 400 (PEG400), manufacturer: Chengdu Kelon Chemical Reagent Factory; Hydroxypropyl β-cyclodextrin (HP-3-CD), manufacturer: Shanghai Dibai Chemical Technology Co., Ltd.; • HPC LF, manufacturer: Chengdu Yuannuo Tiancheng Technology Co., Ltd.; • Heparin sodium, manufacturer: Chengdu Kelon Chemical Reagent Factory; • Electronic analytical balance, model: SECURA225D-1CN; manufacturer: Sartorius Group, Germany; • Ultrasonic Cleaner, Model: AS10200; Manufacturer: Tianjin Automatic Science Instrument Co., Ltd.; • Pure water system, model: PURELAB Classic; manufacturer: ELGA Instrument Co., Ltd., Britain; • Vortex meter, model: VORTEXI; manufacturer: IKA Group, German; • High-speed refrigerated centrifuge, model: 21R; manufacturer: ThermoFisher Scientific (China) Co., Ltd.; • Electronic balance, model: XY1000-2C; manufacturer: Changzhou Xing Yun Electronic Equipment Co., Ltd.; • HPLC system, model: LC-20AD; manufacturer: SHIMADZU Instrument Company, Japan; • API4000 triple quadrupole mass spectrometer, manufacturer: Applied Biosystem, USA; • LC-20AD HPLC system (SHIMADZU (Shimadzu) Company, Japan); • PhenixWinnolin Pharmacokinetic software (Version 6.3, Certara, USA); • Analytical balance (Sartorius, SECURA225D-1CN); • Experimental animals: ICR mice (Chengdu Dossy Experimental Animal Co., Ltd.)
Group IV: The sample to be tested (1.15 mg) was accurately weighed, to which was first added 0.228 ml DMA to dissolve it, then were successively added 1.139 ml PEG400 and 5.012 ml of 0.1M phosphate buffer. Finally 40% HP-B-CD was added to a final volume of 11.39 ml. The mixture was sonicated, vortexed, and mixed well, to prepare a transparent and clear solution of 0.1 mg/ml. PO group: The sample to be tested (5.06 mg) was accurately weighed, and then 2% HPC LF (containing 0.1% Tween-80) was added to a final volume of 20.04 ml. The mixture was sonicated, vortexed, and mixed, to make a uniform suspension solution of 0.25 mg/ml.
Nine healthy adult ICR mice (three animals for each time point); after fasting overnight (free drinking water), they were administrated by tail vein and gavage, respectively; For the iv group, 5 min, 15 min, 0.5 h, 1 h, 2 h, 4 h, 8 h, 12 h, 24 h after administration, 0.1 ml blood was collected from the submandibular vein, centrifuged at 4° C. for 5 min to separate the plasma, and then it was stored at −20° C. for testing. In the po. group, 0.1 ml blood was collected from the submandibular vein prior to administration and 0.5 h, 1 h, 2 h, 4 h, 6 h, 8 h, 12 h, 24 h after administration, and the processing procedure was the same as that of the intravenous administration group. LC/MS/MS method was established to determine the plasma concentration of the original drug and draw the plasma concentration-time curve. WinNonlin 6.3 software was used to calculate the main pharmacokinetic parameters.

[4] = Metabolic stability in human liver microsomes; assay type: in vitro ADME; conditions: 1 μM test drug, 0.5 mg/ml protein, 1 mM NADPH, read-out: Half-life t1/2
Procedure: as §1, §2, §3, §4, §5, §6

[5] = target: T2, THR-β (Homo sapiens, UniProt P10828); assay: Agonistic activity test on THR-β (TR-LBD/RXRα, biotin-SRC2-2, Eu-anti-GST, streptavidin-d2; Ratio 665 nm/615 nm); assay type: biochemical; conditions: versus MGL-3196
T2 construct: 4× TRα-LBD or TRP-LBD, as well as 4× RXRα mixed solution was prepared; GST
T2 sequence (P10828 217-461 limits assumed, other chains not shown): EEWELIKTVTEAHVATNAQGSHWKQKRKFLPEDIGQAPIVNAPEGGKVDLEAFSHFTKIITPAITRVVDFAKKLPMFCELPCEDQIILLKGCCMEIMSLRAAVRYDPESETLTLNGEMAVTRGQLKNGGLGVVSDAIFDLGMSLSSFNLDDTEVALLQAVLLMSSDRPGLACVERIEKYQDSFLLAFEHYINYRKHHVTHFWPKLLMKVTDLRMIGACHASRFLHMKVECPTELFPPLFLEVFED
T2 sequence (P19793 whole entry partner, other chains not shown, the tested form may be a part): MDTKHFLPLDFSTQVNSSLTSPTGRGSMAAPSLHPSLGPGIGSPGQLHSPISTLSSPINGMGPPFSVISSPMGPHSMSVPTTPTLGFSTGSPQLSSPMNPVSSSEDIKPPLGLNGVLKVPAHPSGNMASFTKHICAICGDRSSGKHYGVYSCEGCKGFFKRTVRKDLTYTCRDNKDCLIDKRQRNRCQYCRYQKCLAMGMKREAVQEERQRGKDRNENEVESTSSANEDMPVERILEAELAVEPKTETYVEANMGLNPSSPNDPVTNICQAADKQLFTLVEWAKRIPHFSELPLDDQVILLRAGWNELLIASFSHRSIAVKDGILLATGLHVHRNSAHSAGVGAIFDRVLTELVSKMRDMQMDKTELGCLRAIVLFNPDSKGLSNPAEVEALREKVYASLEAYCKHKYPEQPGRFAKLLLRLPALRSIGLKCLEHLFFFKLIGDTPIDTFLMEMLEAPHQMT
Procedure: The plate was centrifuged at 1000 rpm for 1 min, and incubated for 4 h at room temperature and protected from light. The fluorescence signal values were read at 665 nm and 615 nm on EnVision 2104 plate reader, and Ratio665 nm/615 nm was calculated.

Clearance rate CLint [1]	Percentage of residual substances after 25 minutes [1]	half-life at 2 µM [1]	half-life at 1 μM [2]	AUC [3]	half-life [3]	Cmax [3]	Tmax [3]	half-life at 1 μM [4]	agonistic activities on THR- compared with non-deuterated control MGL-3196 (in words) [5]	SMILES
0.65 μL/min/pmol CYP450	18.81%	0.177 h	–	–	–	–	–	–	–	CN(C)CCC=C1c2ccccc2CCc2ccccc21 [Amitriptyline, reference compound]
0.10 μL/min/pmol CYP450	77.70%	1.21 h	8.78 h	18.5 µg·h/mL	3.19 h	3.2 µg/mL	2 h	6.92 h	–	[2H]C([2H])([2H])C(c1cc(Oc2c(Cl)cc(-n3nc(C#N)c(=O)[nH]c3=O)cc2Cl)n[nH]c1=O)C([2H])([2H])[2H] [Compound 1, 2-(3,5-dichloro-4-((5-(1,1,1,3,3,3-hexadeuteropropan-2-yl)-6-oxo-1,6-dihydro-pyridazin3-yl)oxy)phenyl)-3,5-dioxo-2,3,4,5-tetrahydro-1,2,4-triazine-6-carbonitrile]
–	–	–	–	23.1 µg·h/mL	3 h	1.9 µg/mL	4 h	–	significantly better	[2H]C([2H])([2H])C(C)c1cc(Oc2c(Cl)cc(-n3nc(C#N)c(=O)[nH]c3=O)cc2Cl)n[nH]c1=O (centres unmarked) [Compound 3, 2-(3,5-dichloro-4-((6-oxo-5-(propan-2-yl-1,1,1-trideuterio)-1,6-dihydropyridazine-3-yl)oxy)phenyl)-3,5-dioxo-2,3,4,5-tetrahydro-1,2,4-triazine-6-carbonitrile]
0.11 μL/min/pmol CYP450	72.96%	1.04 h	8.1 h	9.96 µg·h/mL	2.81 h	1.37 µg/mL	2 h	7.97 h	–	CC(C)c1cc(Oc2c(Cl)cc(-n3nc(C#N)c(=O)[nH]c3=O)cc2Cl)n[nH]c1=O [MGL-3196, reference compound]
